Starred links: 1 amine or outer side, 2 acyl side, 3 side chain; linkers in the order of their positions; H or OH if unused. Positions of bridges follow the written chain, without caps; N, C: chain ends. Non-standard residues stand in square brackets, D forms with d. Residues, ends and D or L forms follow the SMILES beside them. Chains are numbered I, II in the order given. Actinocin(9to1) = Cc1c2oc3c(C)ccc(C(=O)[*:1])c3nc-2c(C(=O)[*:2])c(N)c1=O; NMeV = CN[C@H](C(=O)O)C(C)C; Sar = CNCC(=O)O
Key:
[1] = tested on: pro-ICA512; details: cells stimulated for 2 hours; reference 8; cited from earlier work
[2] = tested on: INS-1 cells; test: Uridine incorporation in INS-1 cells; assay type: cell-based, rat; details: 5 μg/ml actinomycin D; ICA512-CCF-GFP-transfected INS-1 cells
[3] = target: T1, PIASy-YFP (mouse, UniProt Q9JM05 2-507); test: FRET by acceptor photobleaching in nuclei of co-transfected INS-1 cells
T1 construct: whole, on cells; Transiently expressed in INS-1 cells; nuclear; not shown: YFP encoded by pEYFP-N2 (Clontech), fused at the C-terminus
T1 sequence (looked up): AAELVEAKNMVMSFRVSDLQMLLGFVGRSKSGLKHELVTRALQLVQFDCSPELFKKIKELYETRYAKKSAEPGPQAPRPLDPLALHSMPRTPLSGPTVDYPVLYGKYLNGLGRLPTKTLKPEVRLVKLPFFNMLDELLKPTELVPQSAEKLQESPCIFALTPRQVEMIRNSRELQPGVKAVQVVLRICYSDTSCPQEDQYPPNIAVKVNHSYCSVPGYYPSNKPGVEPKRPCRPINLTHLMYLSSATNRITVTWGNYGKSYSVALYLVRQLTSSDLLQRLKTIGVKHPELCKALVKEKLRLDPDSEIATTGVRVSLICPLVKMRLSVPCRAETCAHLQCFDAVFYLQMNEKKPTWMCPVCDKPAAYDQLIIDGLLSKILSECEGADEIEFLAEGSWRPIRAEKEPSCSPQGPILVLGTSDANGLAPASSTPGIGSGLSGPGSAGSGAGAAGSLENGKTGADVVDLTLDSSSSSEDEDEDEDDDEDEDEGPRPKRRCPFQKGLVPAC
Protocol: FRET analysis. INS-1 cells transiently co-transfected with ICA512-CFP, PIASy-YFP, Ism4-YFP and Ism4-CFP were incubated either in resting or stimulating buffer for 90 minutes. Following fixation in 2% paraformahaldehyde, cells were imaged with an inverted […] confocal microscope (Zeiss) using a Plan-Apochromat 100× 1.4 oil DIC objective, The pinhole diameter was set between 1.0 and 1.25 Airy-Unit. […] 458 nm and 514 nm laser lines were used to excite CFP and YFP, respectively. CFP images were acquired with a 458 nm dichroic mirror and a bandpass filter of 475-495, while YFP fluorescence was collected with a 514 nm dichroic mirror and a bandpass filter of 530-600 nm. FRET was assessed by measuring the dequenching of CFP during the photobleaching of YFP performed with the 514 nm laser line at 70% power and for six cycles of 30 sec. each. Mean fluorescence of CFP and YFP were determined by tracing the nuclear perimeter of the cell using the “region of interest” software function. Fluorescence intensity of CFP after photobleaching was normalized to 100% at time 0. In each experiment, 6-9 fields for each slide were photobleached and recorded. Each experiment was independently performed two times.

[4] = target: T2, in-vitro transcribed and translated [^35S]-labeled PIASy (mouse, UniProt Q9JM05 1-507, [35S]-methionine label); test: GST pull-down, SDS-PAGE and autoradiography
T2 construct: The mouse PIASy cDNA in pcDNA3.1 is the only untagged PIASy construct described; also called [^35S]-PIASy; [^35S]-methionine-PIASy
T2 sequence (looked up): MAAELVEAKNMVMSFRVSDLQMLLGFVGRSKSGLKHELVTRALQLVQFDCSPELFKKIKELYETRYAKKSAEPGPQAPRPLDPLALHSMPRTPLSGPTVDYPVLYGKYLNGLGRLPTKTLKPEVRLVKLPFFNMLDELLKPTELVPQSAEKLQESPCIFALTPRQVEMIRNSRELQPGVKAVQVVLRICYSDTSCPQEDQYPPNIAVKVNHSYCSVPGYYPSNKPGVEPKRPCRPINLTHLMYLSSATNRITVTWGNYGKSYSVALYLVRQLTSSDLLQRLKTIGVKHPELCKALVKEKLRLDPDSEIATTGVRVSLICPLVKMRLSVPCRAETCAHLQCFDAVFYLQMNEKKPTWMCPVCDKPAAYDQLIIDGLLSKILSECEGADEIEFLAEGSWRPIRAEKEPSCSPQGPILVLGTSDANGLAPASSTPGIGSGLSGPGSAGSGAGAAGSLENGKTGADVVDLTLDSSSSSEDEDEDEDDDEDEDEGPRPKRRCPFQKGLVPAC

Molecule: Cc1c2oc3c(C)ccc(C(=O)N[C@@H]4C(=O)N[C@H](C(C)C)C(=O)N5CCC[C@H]5C(=O)N(C)CC(=O)N(C)[C@@H](C(C)C)C(=O)O[C@@H]4C)c3nc-2c(C(=O)N[C@@H]2C(=O)N[C@H](C(C)C)C(=O)N3CCC[C@H]3C(=O)N(C)CC(=O)N(C)[C@@H](C(C)C)C(=O)O[C@@H]2C)c(N)c1=O [actinomycin D, reference compound] (I: T[dV]P[Sar][NMeV] / II: T[dV]P[Sar][NMeV]; ester I:1-I:C, II:1-II:C; linker I:N-II:N via Actinocin(9to1))
- rapid induction of pro-ICA512 [1]: did not prevent the rapid induction of pro-ICA512
- effect on the increase of 3H-uridine incorporation [2]: abolished

B1: ICA512-CFP (other)
chain: SQFSDAAQASPSSHSSTPSWCEEPAQANMDISTGHMILAYMEDHLRNRDRLAKEWQALCAYQAEPNTCATAQGEGNIKKNRHPDFLPYDHARIKLKVESSPSRSDYINASPIIEHDPRMPAYIATQGPLSHTIADFWQMVWESGCTVIVMLTPLVEDGVKQCDRYWPDEGASLYHVYEVNLVSEHIWCEDFLVRSFYLKNVQTQETRTLTQFHFLSWPAEGTPASTRPLLDFRRKVNKCYRGRSCPIIVHCSDGAGRTGTYILIDMVLNRMAKGVKEIDIAATLEHVRDQRPGLVRSKDQFEFALTAVAEEVNAILKALPQ
notes: The FRET was read in the nucleus, so the partner of PIASy-YFP there is the cleaved cytoplasmic fragment ICA512-CCF-CFP; Its N-terminal limit in cells is not determined; also called ICA512-CCF-CFP (its cleaved cytoplasmic fragment in the nucleus); not shown: CFP encoded by pECFP-N1 (Clontech), fused at the C-terminus
- fold increase of the recovery of ICA512-CFP signal after photobleaching of PIASy-YFP (FRET), stimulated against resting cells [3]: ~5 fold

B2: GST-ICA512 (800-979) (other)
chain: ESGCTVIVMLTPLVEDGVKQCDRYWPDEGASLYHVYEVNLVSEHIWCEDFLVRSFYLKNVQTQETRTLTQFHFLSWPAEGTPASTRPLLDFRRKVNKCYRGRSCPIIVHCSDGAGRTGTYILIDMVLNRMAKGVKEIDIAATLEHVRDQRPGLVRSKDQFEFALTAVAEEVNAILKALPQ
notes: Bacterially expressed; not shown: glutathione S-transferase (GST) fusion partner
- binding result [4]: no binding
